The values that follow come from publication PMC9611727, “Optimization of a Novel Mandelamide-Derived Pyrrolopyrimidine Series of PERK Inhibitors” (Pharmaceutics, 2022).

Holding throughout (assay): scanMAX kinase panel
Common to all, as to type: binding
Holding throughout (conditions): read-out: % Control; for remaining binding at 1 µM: 1000 nM

Assay [1] has as its target T1, FLT3(D835H) (Homo sapiens, UniProt P36888, D835H).
T1 construct: purchased DiscoverX scanMAX
T1 sequence (P36888 27-993 D835H): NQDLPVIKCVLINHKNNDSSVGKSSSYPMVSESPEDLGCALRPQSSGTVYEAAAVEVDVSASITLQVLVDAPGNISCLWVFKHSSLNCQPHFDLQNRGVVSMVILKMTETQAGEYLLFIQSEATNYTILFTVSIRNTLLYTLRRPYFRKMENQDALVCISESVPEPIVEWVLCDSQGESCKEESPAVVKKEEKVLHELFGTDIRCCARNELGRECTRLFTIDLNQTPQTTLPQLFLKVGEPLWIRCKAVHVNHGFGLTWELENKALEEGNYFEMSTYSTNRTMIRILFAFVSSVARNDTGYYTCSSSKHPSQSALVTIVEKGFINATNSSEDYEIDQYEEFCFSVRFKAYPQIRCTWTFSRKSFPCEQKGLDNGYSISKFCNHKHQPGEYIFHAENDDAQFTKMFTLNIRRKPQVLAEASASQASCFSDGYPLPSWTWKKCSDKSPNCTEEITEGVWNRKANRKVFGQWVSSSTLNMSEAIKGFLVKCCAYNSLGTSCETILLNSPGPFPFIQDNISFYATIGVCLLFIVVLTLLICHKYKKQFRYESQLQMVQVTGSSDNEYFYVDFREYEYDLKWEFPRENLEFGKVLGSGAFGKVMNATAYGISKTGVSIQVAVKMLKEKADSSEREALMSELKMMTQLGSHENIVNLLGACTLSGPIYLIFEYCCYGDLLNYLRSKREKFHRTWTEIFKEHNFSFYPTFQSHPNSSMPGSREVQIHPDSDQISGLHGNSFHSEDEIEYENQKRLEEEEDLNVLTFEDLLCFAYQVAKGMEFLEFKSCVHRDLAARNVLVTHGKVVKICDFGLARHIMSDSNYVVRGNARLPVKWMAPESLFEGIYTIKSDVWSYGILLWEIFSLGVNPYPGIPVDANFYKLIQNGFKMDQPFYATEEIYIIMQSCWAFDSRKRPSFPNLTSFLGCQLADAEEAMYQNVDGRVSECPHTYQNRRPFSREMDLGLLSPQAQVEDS
From the text: (§1) Supplemental Table S2. scanMAXSM Kinome Assay Results. Complete tabulated data of all 468 kinases from the panel, including
(§2) 403 wild-type and 65 mutant isoforms. […] Cmpd 11 and Cmpd 24

The target in assay [2] is T2, FLT3(R834Q) (Homo sapiens, UniProt P36888, R834Q).
T2 construct: purchased DiscoverX scanMAX
T2 sequence (P36888 27-993 R834Q): T1 sequence (P36888 27-993 D835H) with R808Q, H809D
Description: as §1, §2

In assay [3] the target is T3, DDR1 (Homo sapiens, UniProt Q08345).
T3 construct: purchased DiscoverX scanMAX
Description: as §1, §2

Assay [4] addresses T4, TIE2 (Homo sapiens, UniProt Q02763).
T4 construct: purchased DiscoverX (scanMAX panel)
Description: as §1, §2

For assay [5], the target named is T5, KIT (Homo sapiens, UniProt P10721).
T5 construct: purchased DiscoverX scanMAX
Description: as §1, §2

Substitutions are numbered along the chain they refer to.

T5 sequence (P10721 26-976): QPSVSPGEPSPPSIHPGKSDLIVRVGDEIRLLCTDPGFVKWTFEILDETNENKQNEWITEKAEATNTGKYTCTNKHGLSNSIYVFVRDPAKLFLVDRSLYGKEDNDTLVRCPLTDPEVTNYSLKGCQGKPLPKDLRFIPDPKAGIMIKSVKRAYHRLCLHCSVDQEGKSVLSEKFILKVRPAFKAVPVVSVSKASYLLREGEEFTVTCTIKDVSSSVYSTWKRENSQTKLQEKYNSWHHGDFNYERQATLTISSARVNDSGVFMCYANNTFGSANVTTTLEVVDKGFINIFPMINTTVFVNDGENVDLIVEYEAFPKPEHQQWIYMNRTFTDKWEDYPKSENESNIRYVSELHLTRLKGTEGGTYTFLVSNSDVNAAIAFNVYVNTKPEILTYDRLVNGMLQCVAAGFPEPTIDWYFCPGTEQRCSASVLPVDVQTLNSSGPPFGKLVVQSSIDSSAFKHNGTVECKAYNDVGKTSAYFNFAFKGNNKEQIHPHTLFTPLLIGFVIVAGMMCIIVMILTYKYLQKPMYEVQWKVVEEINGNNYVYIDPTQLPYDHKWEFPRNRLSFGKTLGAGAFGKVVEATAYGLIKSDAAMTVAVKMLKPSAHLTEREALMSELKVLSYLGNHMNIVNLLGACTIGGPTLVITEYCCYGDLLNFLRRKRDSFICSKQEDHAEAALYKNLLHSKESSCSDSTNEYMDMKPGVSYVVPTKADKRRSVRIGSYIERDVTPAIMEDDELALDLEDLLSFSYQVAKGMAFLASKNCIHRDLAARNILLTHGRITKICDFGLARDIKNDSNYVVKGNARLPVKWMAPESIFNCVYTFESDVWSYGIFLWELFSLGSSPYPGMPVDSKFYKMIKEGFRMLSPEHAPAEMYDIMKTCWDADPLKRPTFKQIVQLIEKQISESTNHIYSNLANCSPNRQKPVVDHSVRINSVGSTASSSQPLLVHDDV
T4 sequence (Q02763 23-1124): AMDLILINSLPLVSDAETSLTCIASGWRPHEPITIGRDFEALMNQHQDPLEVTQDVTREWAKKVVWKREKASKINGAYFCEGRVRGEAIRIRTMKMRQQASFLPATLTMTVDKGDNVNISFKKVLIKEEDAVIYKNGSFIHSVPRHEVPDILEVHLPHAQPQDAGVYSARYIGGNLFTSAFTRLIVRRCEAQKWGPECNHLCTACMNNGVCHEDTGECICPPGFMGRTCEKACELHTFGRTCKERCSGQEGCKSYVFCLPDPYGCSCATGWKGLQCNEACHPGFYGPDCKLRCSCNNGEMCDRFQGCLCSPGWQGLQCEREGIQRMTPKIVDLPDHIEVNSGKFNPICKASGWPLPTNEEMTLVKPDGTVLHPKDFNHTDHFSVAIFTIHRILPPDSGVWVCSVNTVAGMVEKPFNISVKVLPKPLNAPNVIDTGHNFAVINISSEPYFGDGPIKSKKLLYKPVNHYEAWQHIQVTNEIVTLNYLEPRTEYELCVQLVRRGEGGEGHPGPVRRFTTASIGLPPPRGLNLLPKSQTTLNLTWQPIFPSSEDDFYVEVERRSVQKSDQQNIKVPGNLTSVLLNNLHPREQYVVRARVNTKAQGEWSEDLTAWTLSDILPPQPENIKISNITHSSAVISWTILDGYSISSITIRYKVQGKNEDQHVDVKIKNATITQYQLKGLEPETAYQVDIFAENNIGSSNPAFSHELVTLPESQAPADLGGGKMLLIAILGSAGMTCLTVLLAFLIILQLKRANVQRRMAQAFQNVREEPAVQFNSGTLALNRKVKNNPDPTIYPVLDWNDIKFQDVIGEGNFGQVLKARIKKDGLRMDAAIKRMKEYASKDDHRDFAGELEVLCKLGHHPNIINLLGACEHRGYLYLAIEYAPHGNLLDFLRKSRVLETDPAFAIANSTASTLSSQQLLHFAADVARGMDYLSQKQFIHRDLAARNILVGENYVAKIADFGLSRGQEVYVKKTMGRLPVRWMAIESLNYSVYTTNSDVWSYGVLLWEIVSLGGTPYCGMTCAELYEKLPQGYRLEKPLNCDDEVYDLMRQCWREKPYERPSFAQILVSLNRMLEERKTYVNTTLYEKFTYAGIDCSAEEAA
T3 sequence (Q08345 19-913): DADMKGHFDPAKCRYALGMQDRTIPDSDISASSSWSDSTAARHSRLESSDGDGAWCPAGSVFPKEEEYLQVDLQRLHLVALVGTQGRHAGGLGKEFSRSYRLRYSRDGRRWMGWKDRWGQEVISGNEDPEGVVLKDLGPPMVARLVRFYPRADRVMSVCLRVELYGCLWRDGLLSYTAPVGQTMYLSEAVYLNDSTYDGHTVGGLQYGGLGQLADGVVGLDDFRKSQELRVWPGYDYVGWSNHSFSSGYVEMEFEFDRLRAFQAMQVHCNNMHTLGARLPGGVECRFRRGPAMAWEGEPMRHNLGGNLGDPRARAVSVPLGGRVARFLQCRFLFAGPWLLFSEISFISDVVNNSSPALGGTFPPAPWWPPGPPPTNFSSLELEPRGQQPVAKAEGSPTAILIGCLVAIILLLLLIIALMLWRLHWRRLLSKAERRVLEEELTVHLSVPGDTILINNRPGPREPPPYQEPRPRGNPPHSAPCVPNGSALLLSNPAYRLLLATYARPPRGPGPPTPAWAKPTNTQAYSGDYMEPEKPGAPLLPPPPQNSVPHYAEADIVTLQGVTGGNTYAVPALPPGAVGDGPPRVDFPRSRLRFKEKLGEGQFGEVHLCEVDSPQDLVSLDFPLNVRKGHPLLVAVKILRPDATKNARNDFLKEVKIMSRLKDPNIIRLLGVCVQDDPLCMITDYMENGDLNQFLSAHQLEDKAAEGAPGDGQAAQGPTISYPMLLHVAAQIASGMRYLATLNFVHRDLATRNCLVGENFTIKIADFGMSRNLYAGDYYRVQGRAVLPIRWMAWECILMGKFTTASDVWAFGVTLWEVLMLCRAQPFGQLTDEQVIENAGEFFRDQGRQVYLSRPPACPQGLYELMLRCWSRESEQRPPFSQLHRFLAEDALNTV

Take `Cc1cc(NC(=O)[C@H](O)c2cccc(F)c2)ccc1-c1cn(C)c2ncnc(N)c12` [Compound 11, (R)-N-(4-(4-amino-7-methyl-7H-pyrrolo[2,3-d]pyrimidin-5-yl)-3-methylphenyl)-2-(3-fluorophenyl)-2-hydroxy acetamide]: the remaining binding at 1 µM turned out to be 33% in assay [1]; 59% in assay [2]; 72% in assay [3]; 14% in assay [4]; 38% in assay [5].
The like results for `Cc1nc(N)c2c(-c3ccc(NC(=O)[C@H](O)c4cccc(F)c4)cc3C)cn(C)c2n1` [Compound 24] were, in that order, 98%, 98%, 100%, 100% and 100%.
For the compound `Cc1nc(N)c2c(-c3ccc(NC(=O)[C@H](O)c4cccc(C(F)(F)F)c4)cc3C)cn(C)c2n1` [Compound 26], the remaining binding at 0.1 µM in assay [1] (100 nM) was found to be 85%; in assay [2] (100 nM) it was 84%; in assay [3] (100 nM), 100%; in assay [4] (100 nM), 100%; in assay [5] (100 nM), 97%. Further, the remaining binding at 1 µM in assay [1] came out at 25%; in assay [2] it was 7.5%; in assay [3], 29%; in assay [4], 65%; in assay [5], 0.65%.
